pIC50: −log10 of the molar value. The source made the active and inactive calls. No cut-off for these calls is given here.
Tests used:
[1] = test system: HCT-116; assay: Cytotoxicity against human HCT116 cells after 5 days by MTS assay; assay type: functional, cell-based; settings: HCT-116, 120 h
[2] = biological target: Cyclin-dependent kinase 1 (Homo sapiens, UniProt P06493); assay: Inhibition of CDK1
[3] = biological target: T1, Aurora kinase A (Homo sapiens, UniProt O14965); assay: Inhibition of aurora A kinase
T1 sequence (O14965 whole entry): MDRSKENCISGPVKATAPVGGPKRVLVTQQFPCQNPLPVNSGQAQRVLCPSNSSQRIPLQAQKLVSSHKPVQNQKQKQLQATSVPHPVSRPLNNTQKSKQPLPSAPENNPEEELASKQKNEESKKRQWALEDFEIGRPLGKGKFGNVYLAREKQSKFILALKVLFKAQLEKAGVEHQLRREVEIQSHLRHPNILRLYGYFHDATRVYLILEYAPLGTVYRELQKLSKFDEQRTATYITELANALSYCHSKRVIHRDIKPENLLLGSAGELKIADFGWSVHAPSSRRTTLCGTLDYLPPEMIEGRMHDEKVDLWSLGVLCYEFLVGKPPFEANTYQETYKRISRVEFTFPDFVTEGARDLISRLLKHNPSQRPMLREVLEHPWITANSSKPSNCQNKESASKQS

[4] = biological target: T2, Aurora kinase B (Homo sapiens, UniProt Q96GD4); assay: Inhibition of aurora B kinase
[5] = test system: HCT-116; assay: Cell cycle arrest in human HCT116 cells assessed as minimum concentration required for G2/M versus G1 peak ratio over 2; assay type: functional
[6] = Metabolic stability in mouse liver microsome assessed as ratio of clearance to hepatic blood flow; assay type: ADME; settings: liver microsomes, read-out: QH
[7] = test system: Mus musculus; assay: Inhibition of CDK1 in mouse serum assessed as decrease in histone H1 phosphorylation at 25 mg/kg, ip measured after 2 hrs; assay type: functional; settings: route intraperitoneal
[8] = AUC in mouse at 25 mg/kg, ip; assay type: ADME, organism-based; set-up: dose 25 mg/kg, route intraperitoneal; settings: plasma
[9] = test system: Mus musculus; assay: Inhibition of aurora A kinase in mouse assessed as increase in histone H3 phosphorylation at 25 mg/kg, ip measured after 6 hrs; assay type: functional, organism-based; set-up: dose 25 mg/kg
[10] = Toxicity in human BMNC assessed as granulocyte/monocyte colony forming units ratio after 14 days by microscopic analysis; settings: 336 h
[11] = test system: Mus musculus; assay: Toxicity in nu/nu mouse xenografted with human HCT116 cells assessed as hunched posture at 12.5 to 40 mg/kg, ip qd for 21 days; assay type: organism-based, HCT-116; set-up: dose 12.5-40 mg/kg, route intraperitoneal; settings: in vivo, 504 h
[12] = test system: HCT-116; assay: Antitumor activity against human HCT116 cells xenografted in nu/nu mouse assessed as tumor growth inhibition at 12.5 to 40 mg/kg, ip qd for 21 days; assay type: functional; settings: dose mg/kg 12.5-40; route intraperitoneal
[13] = biological target: T2, Aurora kinase B; assay: Inhibition of aurora B kinase phosphorylation in human K562 cells at 0.003 to 1 uM by Western blot analysis; assay type: cell-based
[14] = test system: Rattus norvegicus; assay: Apparent volume of distribution in rat at 4 mg/kg, iv; assay type: ADME, organism-based; set-up: dose 4 mg/kg, route intravenous; settings: in vivo
[15] = test system: Rattus norvegicus; assay: Half life in rat at 4 mg/kg, iv; assay type: ADME, organism-based; set-up: dose 4 mg/kg, route intravenous; settings: in vivo
[16] = Clearance in mouse at 25 mg/kg, ip; assay type: ADME, organism-based; set-up: dose 25 mg/kg, route intraperitoneal; settings: in vivo
[17] = test system: Mus musculus; assay: Inhibition of CDK1 in mouse serum assessed as decrease in histone H3 phosphorylation at 25 mg/kg, ip measured after 2 hrs; assay type: functional; settings: route intraperitoneal
[18] = test system: Mus musculus; assay: Toxicity in nu/nu mouse xenografted with human HCT116 cells assessed as weight loss at 12.5 to 40 mg/kg, ip qd for 21 days; assay type: organism-based, HCT-116; set-up: dose 12.5-40 mg/kg, route intraperitoneal; settings: in vivo, 504 h
[19] = test system: Mus musculus; assay: Apparent volume of distribution in mouse at 25 mg/kg, ip; assay type: ADME, organism-based; set-up: dose 25 mg/kg, route intraperitoneal; settings: in vivo
[20] = test system: Mus musculus; assay: Toxicity in nu/nu mouse xenografted with human HCT116 cells assessed as reluctance to move at 12.5 to 40 mg/kg, ip qd for 21 days; assay type: organism-based, HCT-116; set-up: dose 12.5-40 mg/kg, route intraperitoneal; settings: in vivo, 504 h
[21] = biological target: T3, Aurora kinase A (Homo sapiens) (UniProt O14965); assay: Inhibition of aurora A kinase phosphorylation in human K562 cells at 0.003 to 1 uM by Western blot analysis; assay type: cell-based
T3 sequence (whole entry): T1 sequence (O14965 whole entry)

[22] = test system: Mus musculus; assay: Inhibition of aurora A in mouse assessed as increase in histone H3 phosphorylation at 25 mg/kg, ip measured after 9 hrs; assay type: functional, organism-based; set-up: dose 25 mg/kg
[23] = Half life in mouse at 25 mg/kg, ip; assay type: ADME, organism-based; set-up: dose 25 mg/kg, route intraperitoneal; settings: in vivo
[24] = AUC in rat at 4 mg/kg, iv; assay type: ADME, organism-based; set-up: dose 4 mg/kg, route intravenous; settings: plasma
[25] = test system: Mus musculus; assay: Toxicity in nu/nu mouse xenografted with human HCT116 cells assessed as mortality at 12.5 to 40 mg/kg, ip qd for 21 days; assay type: organism-based, HCT-116; set-up: dose 12.5-40 mg/kg, route intraperitoneal; settings: in vivo, 504 h

Chain of Cyclin-dependent kinase 1 (P06493 whole entry): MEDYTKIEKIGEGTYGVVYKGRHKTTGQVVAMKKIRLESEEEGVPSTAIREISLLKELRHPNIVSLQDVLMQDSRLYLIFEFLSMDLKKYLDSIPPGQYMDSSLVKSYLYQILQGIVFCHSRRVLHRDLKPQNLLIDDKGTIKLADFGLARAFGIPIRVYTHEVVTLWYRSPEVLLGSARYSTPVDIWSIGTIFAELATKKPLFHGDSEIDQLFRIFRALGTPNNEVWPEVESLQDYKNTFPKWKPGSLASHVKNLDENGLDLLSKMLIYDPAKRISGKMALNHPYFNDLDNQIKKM
T2 sequence (Q96GD4 whole entry): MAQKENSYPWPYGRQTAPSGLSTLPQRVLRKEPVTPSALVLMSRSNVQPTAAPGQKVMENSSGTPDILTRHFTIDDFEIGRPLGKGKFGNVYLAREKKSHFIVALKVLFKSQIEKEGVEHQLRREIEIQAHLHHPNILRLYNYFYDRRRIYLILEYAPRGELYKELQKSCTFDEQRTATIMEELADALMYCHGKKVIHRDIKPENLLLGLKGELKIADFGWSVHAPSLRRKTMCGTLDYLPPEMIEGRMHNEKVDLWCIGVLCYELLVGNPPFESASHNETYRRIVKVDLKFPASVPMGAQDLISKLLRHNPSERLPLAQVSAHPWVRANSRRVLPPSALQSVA

SMILES | pIC50 [1] | pIC50 [2] | pIC50 [3] | pIC50 [4] | Activity [5] | hepatic extraction ratio [6] | also measured
O=C(O)c1ccc(Nc2ncc3c(n2)-c2ccc(Cl)cc2C(c2c(F)cccc2F)=NC3)cc1 [MLN-8054] | 6.16 | – | – | – | – | – | –
Cn1cc(Nc2ncc3cnn([C@@H]4C[C@H]5C[C@H]5C4)c3n2)cc1C(=O)N1CCC[C@@H]1CO | 6.77 | 6.82 | 7.00 | 7.44 | 0.1 µM | – | –
Cn1cc(Nc2ncc3cnn([C@@H]4C[C@H]5C[C@H]5C4)c3n2)cc1C(=O)N1CCC[C@H]1CN1CCCC1 | 7.96 | 7.33 | 8.00 | 8.30 | 0.03 µM | – | –
CC(C)n1ncc2cnc(Nc3cc(C(N)=O)n(C)c3)nc21 | 6.00 | 6.80 | 6.64 | 7.42 | 1 µM | 0.27 | –
CNC[C@@H]1CCCN1C(=O)c1cc(Nc2ncc3cnn([C@@H]4C[C@H]5C[C@H]5C4)c3n2)cn1C | 6.82 | 5.92 | 7.10 | 7.30 | 0.3 µM | – | –
Cn1cc(Nc2ncc3cnn([C@@H]4C[C@H]5C[C@H]5C4)c3n2)cc1C(=O)N1CCC[C@H]1CO | 7.74 | 8.00 | 8.40 | 8.52 | 0.01 µM | – | –
COC[C@@H]1CCCN1C(=O)c1cc(Nc2ncc3cnn([C@@H]4C[C@H]5C[C@H]5C4)c3n2)cn1C | 8.00 | 7.66 | 8.40 | 8.30 | 0.03 µM | – | inhibition in vivo at 25 mg/kg [7]: 60%; AUC [8]: 6420 ng·h/mL; inhibition [9]: Active; Ratio [10]: 32; Activity [11]: Toxic; TGI [12]: 30%; inhibition [13]: Active; Vz [14]: 5 L/kg; t1/2 [15]: 5 h; CL/F [16]: 65 mL/min/kg; inhibition in vivo at 25 mg/kg [17]: 90%; Activity [18]: 2%; Vz [19]: 3 L/kg; Activity [20]: Toxic; inhibition [21]: Active; inhibition [22]: Active; half-life [23]: 1 h; AUC [24]: 1230 ng·h/mL; Activity [25]: Toxic
Cn1cc(Nc2ncc3cnn(C4CCC(C)(C)CC4)c3n2)cc1C(N)=O | 7.00 | 7.62 | 7.52 | 8.30 | 0.1 µM | 0.92 | –
Cn1cc(Nc2ncc3cnn([C@H]4CC[C@H]5CCC[C@H]54)c3n2)cc1C(N)=O | 6.64 | 7.80 | 7.68 | 7.92 | 0.3 µM | 0.76 | –
Cn1cc(Nc2ncc3cnn([C@@H]4CC[C@H]5CCC[C@H]54)c3n2)cc1C(N)=O | 7.18 | 7.89 | 7.89 | 7.66 | 0.1 µM | 0.85 | –
Cn1cc(Nc2ncc3cnn([C@@H]4C[C@H]5C[C@H]5C4)c3n2)cc1C(=O)N1CCC[C@H]1C(N)=O | 7.33 | 8.00 | 8.22 | 8.40 | 0.03 µM | – | –
Cn1cc(Nc2ncc3cnn([C@@H]4C[C@H]5C[C@H]5C4)c3n2)cc1C(=O)N1CCCC1 | 7.02 | 7.39 | 7.77 | 7.40 | 0.1 µM | – | –
Cn1cc(Nc2ncc3cnn(C4C5CC6CC(C5)CC4C6)c3n2)cc1C(N)=O (stereo not given) | 6.57 | 7.42 | 7.60 | 7.74 | 0.3 µM | 0.89 | –
O=C1N=C(NCc2cccs2)S/C1=C\c1ccc2ncccc2c1 | 5.49 | – | – | – | – | – | –
Cn1cc(Nc2ncc3cnn(C4CCCCCC4)c3n2)cc1C(N)=O | 6.85 | 7.82 | 7.06 | 7.64 | 0.23 µM | 0.87 | –
Cn1cc(Nc2ncc3cnn([C@@H]4C[C@H]5C[C@H]5C4)c3n2)cc1C(=O)N1CCC[C@@H]1CN1CCOCC1 | 7.62 | 6.41 | 8.82 | 8.40 | 0.03 µM | – | –
COC[C@H]1CCCN1C(=O)c1cc(Nc2ncc3cnn([C@@H]4C[C@H]5C[C@H]5C4)c3n2)cn1C | 7.22 | 6.82 | 7.80 | 8.22 | 0.065 µM | – | –
C[C@@H]1CCCN1C(=O)c1cc(Nc2ncc3cnn([C@@H]4C[C@H]5C[C@H]5C4)c3n2)cn1C | 6.89 | 7.40 | 8.70 | 8.40 | 0.03 µM | – | –
Cn1cc(Nc2ncc3cnn(C4CCC5(CC5)C4)c3n2)cc1C(N)=O (stereo not given) | 6.54 | 7.30 | 6.82 | 7.72 | 0.65 µM | 0.89 | –
Cn1cc(Nc2ncc3cnn([C@@H]4C[C@H]5C[C@H]5C4)c3n2)cc1C(N)=O | 7.10 | 7.62 | 7.77 | 8.40 | 0.1 µM | 0.69 | –
Cn1cc(Nc2ncc3cnn([C@@H]4C[C@H]5C[C@H]5C4)c3n2)cc1C(=O)N1CCC[C@H]1CN1CCOCC1 | 8.10 | 7.68 | 8.52 | 8.40 | 0.017 µM | – | –
CN(C)C(=O)[C@@H]1CCCN1C(=O)c1cc(Nc2ncc3cnn([C@@H]4C[C@H]5C[C@H]5C4)c3n2)cn1C | 6.80 | 5.77 | 7.72 | 8.40 | 0.1 µM | – | –
Cn1cc(Nc2ncc3cnn(C4CCC5(CC4)CC5)c3n2)cc1C(N)=O | 6.92 | 7.72 | 7.40 | 8.30 | 0.3 µM | 0.89 | –
